This note sets out measurements from patent publication US20230295068A1, “NOVEL CYCLOALKENONE COMPOUND OR SALT THEREOF” (TAIHO PHARMACEUTICAL CO., LTD., priority 2020, published 2023).

The test system of this assay is ND3 neuronal cell line. Description: Measurement of nerve growth stimulation effect (neurite bearing assay, neurite length assay, number of cells). It is filed as cell-based. Particulars: 6 hours, relative cell number, DMSO well = 1. On the procedure:
To evaluate the nerve growth stimulation effect, neurite bearing assay (proportion of neurite-bearing cells) and neurite length assay (neurite length) were analyzed with reference to the method of Topalli et al. (Brain Research 1030 (2004), pp. 116-124).
An ND3 neuronal cell line (European Collection of Authenticated Cell Cultures) was seeded in a DMEM medium containing 10% fetal bovine serum (0.6×10^4 cells/1 mL) in a 24-well plate. 24 hours later, the medium of seeded cells was removed, and a solution in which the compound of the present disclosure that was sequentially diluted in dimethyl sulfoxide (DMSO) was adjusted in DIEM containing 0.1% bovine serum albumin so that the DMSO final concentration was 0.1%, was added to cells (evaluation performed in duplicate). After six hours from the addition, the proportion of neurite-bearing cells (the number of cells having a neurite longer than the diameter of the cell body/number of total cells), and the neurite length per cell were analyzed. The number of total cells, proportion of neurite-bearing cells, and neurite length per cell were analyzed using a MetaMorph Neurite Outgrowth Application Module (Molecular Devices Japan K.K.). The number of cells was defined as the relative cell number, taking the number of cells per well containing DMSO as 1. The relative activity of each compound when the maximum activity of 3-(15-methoxypentadecyl)-2,4,4-trimethylcyclohexa-2-en-1-one (compound 24) in each test was defined as 1 is shown (Table 9). For the compounds for which multiple tests were conducted, the average value was shown. Data with a number of cells of 0.5 or more was also used. Accordingly, if the number of cells was less than 0.5, the neurite length per cell and the proportion of neurite-bearing cells were defined as “-”.

By viability is commonly meant a read-out of living cells in per cent, often relative to untreated cells.

On to `COCCCCCCCCCCCCCCCC1=C(COC)C(=O)CCC1(C)C` [Compound 42, 2-(methoxymethyl)-3-(15-methoxypentadecyl)-4,4-dimethylcyclohex-2-en-1-one], for which the viability at 1 µM came out at 86%, the viability at 3 µM turned out to be 88%, the viability at 5 µM was 76% and the viability at 10 µM was found to be 83%. Also, the viability at 30 µM is 87% and the viability at 100 µM worked out at 83%.

Regarding `COCCCCCCCCCCCCCCCC1=CC(=O)CCC12CC2` [Compound 43, 4-(15-methoxypentadecyl)spiro[2,5]oct-4-en-6-one], the viability at 1 µM came out at 97%, the viability at 3 µM turned out to be 97%, the viability at 5 µM was found to be 85% and the viability at 10 µM is 86%. Moreover, the viability at 30 µM was found to be 96% and the viability at 100 µM is 101%.

Turning to `COCCCCCCCCCCCCCCCC1=C(C)C(=O)CCC12CC2` [Compound 44, 4-(15-methoxypentadecyl)-5-methylspiro[2,5]oct-4-en-6-one], the viability at 1 µM worked out at 83%, the viability at 3 µM turned out to be 90%, the viability at 5 µM turned out to be 82% and the viability at 10 µM was found to be 75%. Also, the viability at 30 µM came out at 91% and the viability at 100 µM came to 89%.

For `COCCCCCCCCCCCCCCCC1=C(C)C(=O)CC1` [Compound 45, 3-(15-methoxypentadecyl)-2-methylcyclopent-2-en-1-one], the viability at 1 µM was determined as 94%, the viability at 3 µM was 90%, the viability at 5 µM came out at 74% and the viability at 10 µM was 83%. For the same molecule, the viability at 30 µM was 71% and the viability at 100 µM is 75%.

On to `COCCCCCCCCCCCCCCCC1=C(C)C(=O)C(C)C1C` (stereo not drawn) [Compound 46, 3-(15-methoxypentadecyl)-2,4,5-trimethylcyclopent-2-en-1-one], for which the viability at 1 µM was determined as 94%, the viability at 3 µM amounted to 99%, the viability at 5 µM turned out to be 83% and the viability at 10 µM turned out to be 78%. For the same molecule, the viability at 30 µM stood at 102% and the viability at 100 µM stood at 98%.

As to `COC(C)(C)CCCCCCCCCCCCCCC1=C(C)C(O)CCC1(C)C` (stereo not drawn) [Compound 47, 3-(15-methoxy-15-methylhexadecyl)-2,4,4-trimethylcyclohex-2-en-1-ol], the viability at 1 µM stood at 98%, the viability at 3 µM is 91%, the viability at 5 µM came out at 85% and the viability at 10 µM worked out at 89%. The viability at 30 µM amounted to 88% and the viability at 100 µM came out at 87%.

On to `COC(C)(C)CCCCCCCCCCCCCCC1=C(C)C(=O)CCC1(C)C` [Compound 48, 3-(15-methoxy-15-methylhexadecyl)-2,4,4-trimethylcyclohex-2-en-1-one], for which the viability at 1 µM was 85%, the viability at 3 µM is 93%, the viability at 5 µM was determined as 91% and the viability at 10 µM is 90%. The viability at 30 µM worked out at 93% and the viability at 100 µM was found to be 87%.

In the case of `CC1=C(CCCCCCCCCCCCCCCOC(F)(F)F)C(C)(C)CCC1=O` [Compound 49, 2,4,4-trimethyl-3-(15-(trifluoromethoxy)pentadecyl)-cyclohex-2-en-1-one], the viability at 1 µM worked out at 96%, the viability at 3 µM turned out to be 100%, the viability at 5 µM came to 101% and the viability at 10 µM came out at 101%. The viability at 30 µM came to 103% and the viability at 100 µM came out at 108%.

Turning to `CC1=C(CCCCCCCCCCCCCCCOc2ccccc2)C(C)(C)CCC1=O` [Compound 51, 3-(15-phenoxypentadecyl)-2,4,4-trimethylcyclohex-2-en-1-one], the viability at 1 µM was determined as 107%, the viability at 3 µM came out at 103%, the viability at 5 µM was determined as 93% and the viability at 10 µM turned out to be 93%. Moreover, the viability at 30 µM is 96% and the viability at 100 µM is 94%.

As to `CC1=C(CCCCCCCCCCCCCCCOCc2ccccc2)C(C)(C)CCC1=O` [Compound 52, 3-(15-(benzyloxy)pentadecyl)-2,4,4-trimethylcyclohex-2-en-1-one], the viability at 1 µM was 105%, the viability at 3 µM was found to be 100%, the viability at 5 µM was 95% and the viability at 10 µM came to 96%. For the same molecule, the viability at 30 µM turned out to be 90% and the viability at 100 µM came out at 96%.

With `CC1=C(CCCCCCCCCCCCCCCOC(=O)c2ccccc2)C(C)(C)CCC1=O` [Compound 53, 15-(2,6,6-trimethyl-3-oxocyclohex-1-en-1-yl)pentadecyl benzoate], the viability at 1 µM was found to be 91%, the viability at 3 µM amounted to 95%, the viability at 5 µM was 94% and the viability at 10 µM worked out at 96%. Moreover, the viability at 30 µM is 105% and the viability at 100 µM came out at 115%.

`CC1=C(CCCCCCCCCCCCCCC(=O)N(C)C)C(C)(C)CCC1=O` [Compound 54, N,N-dimethyl-15-(2,6,6-trimethyl-3-oxocyclohex-1-en-1-yl)pentadecanamide]: the viability at 1 µM is 93%, the viability at 3 µM came to 112%, the viability at 5 µM came to 87% and the viability at 10 µM worked out at 90%. The viability at 30 µM turned out to be 4% and the viability at 100 µM turned out to be 5%.

As for `CNC(=O)OCCCCCCCCCCCCCCCC1=C(C)C(=O)CCC1(C)C` [Compound 55, 15-(2,6,6-trimethyl-3-oxocyclohex-1-en-1-yl)pentadecylmethylcarbamate], the viability at 1 µM was found to be 105%, the viability at 3 µM is 102%, the viability at 5 µM amounted to 85% and the viability at 10 µM is 85%. The viability at 30 µM came out at 69% and the viability at 100 µM turned out to be 25%.

`CCNC(=O)OCCCCCCCCCCCCCCCC1=C(C)C(=O)CCC1(C)C` [Compound 56, 15-(2,6,6-trimethyl-3-oxocyclohex-1-en-1-yl)pentadecylethylcarbamate]: the viability at 1 µM was 94%, the viability at 3 µM came to 106%, the viability at 5 µM is 93% and the viability at 10 µM is 95%. Moreover, the viability at 30 µM was found to be 95% and the viability at 100 µM was found to be 93%.

For `CCOC(=O)OCCCCCCCCCCCCCCCC1=C(C)C(=O)CCC1(C)C` [Compound 57, ethyl (15-(2,6,6-trimethyl-3-oxocyclohex-1-en-1-yl)pentadecyl) carbonate], the viability at 1 µM is 96%, the viability at 3 µM is 93%, the viability at 5 µM came to 86% and the viability at 10 µM was 90%. Also, the viability at 30 µM was found to be 97% and the viability at 100 µM turned out to be 100%.

As to `CCC1=C(CCCCCCCCCCCCCCCOC)C(C)(C)CCC1=O` [Compound 60, 2-ethyl-3-(15-methoxypentadecyl)-4,4-dimethylcyclohex-2-en-1-one], the viability at 1 µM was found to be 90%, the viability at 3 µM stood at 91%, the viability at 5 µM was determined as 80% and the viability at 10 µM was found to be 78%. Besides, the viability at 30 µM came out at 34% and the viability at 100 µM is 79%.
